Data: patent US4572895A, “Process for preparing an antibiotic complex by culturing actinomyces strain ATCC 39417” (priority 1985, dated 1986)
In brackets after ≈: the same amount, converted by molar mass. Where two headings read alike, the source gives them in different places.

Experiments:
[1] = tested on: Escherichia coli NIHJ; experiment: MIC, serial two-fold agar dilution; format: cell-based; settings: nutrient agar
[2] = tested on: Staphylococcus aureus 209P; experiment: MIC, serial two-fold agar dilution; format: cell-based; settings: nutrient agar
[3] = tested on: Cryptococcus neoformans D49; experiment: MIC, serial two-fold agar dilution; format: cell-based; settings: Sabouraud agar
[4] = tested on: Bacillus subtilis PCI 219; experiment: MIC, serial two-fold agar dilution; format: cell-based; settings: PCI219, nutrient agar
[5] = solubility; format: physicochemical; settings: acidic water
[6] = tested on: Clostridium difficile; experiment: MIC, serial two-fold agar dilution; format: cell-based; settings: Clostridioides difficile; GAM agar, anaerobe
[7] = tested on: Pseudomonas aeruginosa D15; experiment: MIC, serial two-fold agar dilution; format: cell-based; settings: nutrient agar
[8] = tested on: Candida albicans IAM 4888; experiment: MIC, serial two-fold agar dilution; format: cell-based; settings: IAM4888, Sabouraud agar
[9] = tested on: Micrococcus flavus D12; experiment: MIC, serial two-fold agar dilution; format: cell-based; settings: nutrient agar
[10] = tested on: Staphylococcus aureus Smith; experiment: MIC, serial two-fold agar dilution; format: cell-based; settings: nutrient agar
[11] = tested on: Trichophyton mentagrophytes D155; experiment: MIC, serial two-fold agar dilution; format: cell-based; settings: Sabouraud agar
[12] = tested on: gram-negative bacteria and fungi; experiment: antibacterial/antifungal activity (MIC), summary; format: cell-based
[13] = tested on: aerobic gram-positive bacteria and anaerobic bacteria; experiment: antibacterial activity, summary; format: cell-based
From the text: Nutrient agar medium was used for gram-positive and gram-negative bacteria, GAM agar medium for anaerobes and Sabouraud agar medium for fungi.

[14] = tested on: Micrococcus luteus PCI 1001; experiment: MIC, serial two-fold agar dilution; format: cell-based; settings: PCI1001, nutrient agar
[15] = tested on: P388, L1210 and B16 tumors; experiment: antitumor activity in mice, summary over P388, L1210 and B16; format: in vivo, BDF1 mice; settings: experimental mouse tumors
[16] = tested on: Aspergillus fumigatus IAM 2530; experiment: MIC, serial two-fold agar dilution; format: cell-based; settings: IAM2530, Sabouraud agar
[17] = tested on: Klebsiella pneumoniae D11; experiment: MIC, serial two-fold agar dilution; format: cell-based; settings: nutrient agar
[18] = tested on: Clostridium perfringens; experiment: microbe, parasite or virus in culture; format: cell-based
[19] = tested on: lymphocytic leukemia P388; experiment: antitumor activity, P388 leukemia in mice; settings: qd 1→9
[20] = tested on: Bacteroides fragilis; experiment: MIC, serial two-fold agar dilution; format: cell-based; settings: GAM agar, anaerobe
[21] = tested on: Propionibacterium acnes; experiment: MIC, serial two-fold agar dilution; format: cell-based; settings: Cutibacterium acnes; GAM agar, anaerobe
[22] = tested on: melanotic melanoma B16; experiment: antitumor activity, B16 melanoma in mice; settings: qd 1→9
[23] = tested on: melanotic melanoma B16; settings: qd 1→9
[24] = tested on: lymphoid leukemia L1210; settings: qd 1→9
[25] = tested on: lymphocytic leukemia P388; settings: qd 1→9
[26] = tested on: lymphoid leukemia L1210; experiment: antitumor activity, L1210 leukemia in mice; settings: qd 1→9

Cc1ccc2oc(=O)c3c(O)c4cccc(O[C@@H]5O[C@H](C)[C@H](O)[C@](C)(O)[C@H]5O)c4c4oc(=O)c1c2c34 [BBM-2478B]
MIC [1]: > 100 µg/mL | MIC [2]: 3.1 µg/mL (≈ 6.27 µM) | MIC [3]: > 100 µg/mL | MIC [4]: 0.8 µg/mL (≈ 1.62 µM) | solubility in acidic water [5]: insoluble | MIC [6]: 25 µg/mL (≈ 50.6 µM) | MIC [7]: > 100 µg/mL | MIC [8]: > 100 µg/mL | MIC [9]: 1.6 µg/mL (≈ 3.24 µM) | MIC [10]: 6.3 µg/mL (≈ 12.7 µM) | MIC [11]: > 100 µg/mL | activity against gram-negative bacteria and fungi [12]: inactive | antibacterial activity [13]: potent antibacterial activity | MIC [14]: 3.1 µg/mL (≈ 6.27 µM) | antitumor activity [15]: devoid of antitumor activity | MIC [16]: > 100 µg/mL | MIC [17]: > 100 µg/mL

CO[C@H]1[C@@H](O)[C@@H](C)O[C@H](O[C@H]2[C@H](Oc3cccc4c(O)c5c(=O)oc6ccc(C)c7c(=O)oc(c34)c5c67)O[C@H](C)[C@H](O)[C@@H]2O)[C@@H]1O [Chartreusin, reference compound]
MIC [1]: > 100 µg/mL | MIC [2]: 3.1 µg/mL (≈ 4.84 µM) | MIC [3]: > 100 µg/mL | MIC [18]: 1.6 µg/mL (≈ 2.5 µM) | Average wt. change on day 5 ([19]; 0.1 mg/kg/day ip): +2.8 g | Survivors on day 5 ([19]; 0.1 mg/kg/day ip): 6/6 | Survivors on day 45 ([19]; 0.1 mg/kg/day ip): 0/6 | T/C ([19]; 0.1 mg/kg/day ip): 100% | Average wt. change on day 5 ([19]; 0.3 mg/kg/day ip): +2.0 g | Survivors on day 5 ([19]; 0.3 mg/kg/day ip): 6/6 | Survivors on day 45 ([19]; 0.3 mg/kg/day ip): 0/6 | T/C ([19]; 0.3 mg/kg/day ip): 117% | Average wt. change on day 5 ([19]; 1 mg/kg/day ip): +1.3 g | MST ([19]; 1 mg/kg/day ip): 14.0 days | Survivors on day 5 ([19]; 1 mg/kg/day ip): 6/6 | Survivors on day 45 ([19]; 1 mg/kg/day ip): 0/6 | Average wt. change on day 5 ([19]; 3 mg/kg/day ip): +1.5 g | MST ([19]; 3 mg/kg/day ip): 15.0 days | Survivors on day 5 ([19]; 3 mg/kg/day ip): 6/6 | Survivors on day 45 ([19]; 3 mg/kg/day ip): 0/6 | Average wt. change on day 5 ([19]; 10 mg/kg/day ip): +1.3 g | Survivors on day 5 ([19]; 10 mg/kg/day ip): 6/6 | Survivors on day 45 ([19]; 10 mg/kg/day ip): 0/6 | MIC [4]: 0.4 µg/mL (≈ 0.624 µM) | MIC [20]: 6.3 µg/mL (≈ 9.83 µM) | MIC [21]: 3.1 µg/mL (≈ 4.84 µM) | Average wt. change on day 5 ([22]; 0.3 mg/kg/day ip): +1.8 g | Survivors on day 5 ([22]; 0.3 mg/kg/day ip): 6/6 | Survivors on day 45 ([22]; 0.3 mg/kg/day ip): 0/6 | T/C ([22]; 0.3 mg/kg/day ip): 100% | Average wt. change on day 5 ([22]; 1 mg/kg/day ip): +2.3 g | Survivors on day 5 ([22]; 1 mg/kg/day ip): 6/6 | T/C ([22]; 1 mg/kg/day ip): 114% | Average wt. change on day 5 ([22]; 3 mg/kg/day ip): +2.3 g | Survivors on day 5 ([22]; 3 mg/kg/day ip): 6/6 | Survivors on day 45 ([22]; 3 mg/kg/day ip): 0/6 | Average wt. change on day 5 ([22]; 10 mg/kg/day ip): +1.7 g | Survivors on day 5 ([22]; 10 mg/kg/day ip): 6/6 | Survivors on day 45 ([22]; 10 mg/kg/day ip): 0/6 | MST ([23]; 0.3 mg/kg/day ip): 14.0 days | MST ([23]; 1 mg/kg/day ip): 16.0 days | MST ([23]; 3 mg/kg/day ip): 20.5 days | MST ([23]; 10 mg/kg/day ip): 25.0 days | MIC [7]: > 100 µg/mL | MST ([24]; 0.1 mg/kg/day ip): 8.0 days | MST ([24]; 0.3 mg/kg/day ip): 8.0 days | MST ([24]; 1 mg/kg/day ip): 9.0 days | MST ([24]; 3 mg/kg/day ip): 9.0 days | MST ([24]; 10 mg/kg/day ip): 11.5 days | MIC [8]: > 100 µg/mL | MST ([25]; 0.1 mg/kg/day ip): 9.0 days | MST ([25]; 0.3 mg/kg/day ip): 10.5 days | MST ([25]; 10 mg/kg/day ip): 19.5 days | MIC [9]: 0.4 µg/mL (≈ 0.624 µM) | MIC [10]: 6.3 µg/mL (≈ 9.83 µM) | MIC [11]: > 100 µg/mL | Average wt. change on day 5 ([26]; 0.1 mg/kg/day ip): +3.1 g | Survivors on day 5 ([26]; 0.1 mg/kg/day ip): 6/6 | Survivors on day 45 ([26]; 0.1 mg/kg/day ip): 0/6 | T/C ([26]; 0.1 mg/kg/day ip): 100% | Average wt. change on day 5 ([26]; 0.3 mg/kg/day ip): +3.2 g | Survivors on day 5 ([26]; 0.3 mg/kg/day ip): 6/6 | Survivors on day 45 ([26]; 0.3 mg/kg/day ip): 0/6 | T/C ([26]; 0.3 mg/kg/day ip): 100% | Average wt. change on day 5 ([26]; 1 mg/kg/day ip): +1.9 g | Survivors on day 5 ([26]; 1 mg/kg/day ip): 6/6 | Survivors on day 45 ([26]; 1 mg/kg/day ip): 0/6 | T/C ([26]; 1 mg/kg/day ip): 113% | Average wt. change on day 5 ([26]; 3 mg/kg/day ip): +1.4 g | Survivors on day 5 ([26]; 3 mg/kg/day ip): 6/6 | Survivors on day 45 ([26]; 3 mg/kg/day ip): 0/6 | T/C ([26]; 3 mg/kg/day ip): 113% | Average wt. change on day 5 ([26]; 10 mg/kg/day ip): +1.3 g | Survivors on day 5 ([26]; 10 mg/kg/day ip): 6/6 | Survivors on day 45 ([26]; 10 mg/kg/day ip): 0/6 | activity against gram-negative bacteria and fungi [12]: inactive | MIC [14]: 0.8 µg/mL (≈ 1.25 µM) | MIC [16]: > 100 µg/mL | MIC [17]: > 100 µg/mL
